The results in this text go back to PubChem BioAssay AID270 (DTP/NCI, 2004).

In the experiment the test system is BDF1 mice, s.c. Lewis lung carcinoma, T/C %. Put plainly: NCI In Vivo Anticancer Drug Screen. Data for tumor model Lewis Lung Carcinoma (subcutaneous) in B6D2F1 (BDF1) mice. As for the experimental part: The antitumor activity of compounds was measured in mice bearing transplantable tumors. Survival or tumor size were measured and the results are expressed as the measurement made in the treated group (T) divided by the measurement made in the vehicle treated control group (C). The tumor model used in this assay is Lewis Lung Carcinoma (subcutaneous) in B6D2F1 (BDF1) mice

“And” between values parts separate entries of the source, which are not always exact repeats. Equal entries are not always repeated. Results filed as inconclusive are left out.

Turning to `Cc1cc(CCl)c(C)c(Br)c1C`, the T/C (endpoint: median survival time, dose: 1.5 mg/kg/injection, schedule: Q01DX009 (ip), vehicle: Klucel (hydroxypropylcellulose) (HPC), higher = longer survival) was 108 % of control; the T/C (endpoint: median survival time, dose: 3.0 mg/kg/injection, schedule: Q01DX009 (ip), vehicle: Klucel (hydroxypropylcellulose) (HPC), higher = longer survival) is 120 % of control; the T/C (endpoint: median survival time, dose: 6.0 mg/kg/injection, schedule: Q01DX009 (ip), vehicle: Klucel (hydroxypropylcellulose) (HPC), higher = longer survival) is 95 % of control.

In the case of `O=P(N1CC1)(N1CC1)N1CC1`, the T/C is 90 % of control (endpoint: mean tumor weight, dose: 0.2 mg/kg/injection, schedule: Q01DX011 (ip), vehicle: other, higher = larger tumour); 62 % of control (endpoint: mean tumor weight, dose: 0.4 mg/kg/injection, schedule: Q01DX011 (ip), vehicle: other, higher = larger tumour); 58 % of control and 69 % of control (endpoint: mean tumor weight, dose: 0.8 mg/kg/injection, schedule: Q01DX011 (ip), vehicle: other, higher = larger tumour); 37 % of control and 45 % of control and 62 % of control (endpoint: mean tumor weight, dose: 1.3 mg/kg/injection, schedule: Q01DX011 (ip), vehicle: other, higher = larger tumour); 70 % of control (endpoint: mean tumor weight, dose: 2.0 mg/kg/injection, schedule: Q01DX011 (ip), vehicle: other, higher = larger tumour).

For `CC1=C(/C=C/C(C)=C/C=C/C(C)=C/C=O)C(C)(C)CCC1`, the T/C is 153 % of control (endpoint: median survival time, dose: 16.0 mg/kg/injection, schedule: Q01DX005 (ip), vehicle: DMSO, higher = longer survival) and 151 % of control (endpoint: median survival time, dose: 32.0 mg/kg/injection, schedule: Q01DX005 (ip), vehicle: DMSO, higher = longer survival).

Regarding `O=C1CCCC2C3CC(CN12)C1CCCCN1C3` (centres undefined), the T/C was 113 % of control (endpoint: mean tumor weight, dose: 22.0 mg/kg/injection, schedule: Q01DX011 (ip), vehicle: carboxymethylcellulose (CMC), higher = larger tumour); 59 % of control (endpoint: mean tumor weight, dose: 33.0 mg/kg/injection, schedule: Q01DX011 (ip), vehicle: carboxymethylcellulose (CMC), higher = larger tumour); 78 % of control (endpoint: mean tumor weight, dose: 50.0 mg/kg/injection, schedule: Q01DX011 (ip), vehicle: carboxymethylcellulose (CMC), higher = larger tumour); 89 % of control (endpoint: mean tumor weight, dose: 75.0 mg/kg/injection, schedule: Q01DX011 (ip), vehicle: carboxymethylcellulose (CMC), higher = larger tumour).

`CCO/C=C1\SC(=S)N(c2cccc(OC)c2)C1=O`: the T/C runs as follows: (endpoint: median survival time, dose: 50.0 mg/kg/injection, schedule: Q01DX001 (ip), vehicle: Klucel (hydroxypropylcellulose) (HPC), higher = longer survival) 101 % of control; (endpoint: median survival time, dose: 100.0 mg/kg/injection, schedule: Q01DX001 (ip), vehicle: Klucel (hydroxypropylcellulose) (HPC), higher = longer survival) 104 % of control; (endpoint: median survival time, dose: 200.0 mg/kg/injection, schedule: Q01DX001 (ip), vehicle: Klucel (hydroxypropylcellulose) (HPC), higher = longer survival) 102 % of control; (endpoint: median survival time, dose: 400.0 mg/kg/injection, schedule: Q01DX001 (ip), vehicle: Klucel (hydroxypropylcellulose) (HPC), higher = longer survival) 101 % of control.

For `COc1cc2c[n+](C)c3c4cc5c(cc4ccc3c2cc1OC)OCO5` (tested in a mixture with another compound), the T/C is 92 % of control (endpoint: median survival time, dose: 5.0 mg/kg/injection, schedule: Q01DX009 (ip), vehicle: saline, higher = longer survival); 96 % of control (endpoint: median survival time, dose: 10.0 mg/kg/injection, schedule: Q01DX009 (ip), vehicle: saline, higher = longer survival); 86 % of control (endpoint: median survival time, dose: 20.0 mg/kg/injection, schedule: Q01DX009 (ip), vehicle: saline, higher = longer survival).

Regarding `C=CCn1c(=O)n(CC=C)c(=O)n(CC=C)c1=O`, the T/C runs as follows: (endpoint: mean tumor weight, dose: 15.0 mg/kg/injection, schedule: Q01DX011 (ip), vehicle: carboxymethylcellulose (CMC), higher = larger tumour) 82 % of control; (endpoint: mean tumor weight, dose: 120.0 mg/kg/injection, schedule: Q01DX011 (ip), vehicle: carboxymethylcellulose (CMC), higher = larger tumour) 112 % of control; (endpoint: mean tumor weight, dose: 240.0 mg/kg/injection, schedule: Q01DX011 (ip), vehicle: carboxymethylcellulose (CMC), higher = larger tumour) 67 % of control.

Take `O=C1CCC(=O)N1Br`: the T/C was 99 % of control (endpoint: mean tumor weight, dose: 50.0 mg/kg/injection, schedule: Q01DX011 (ip), vehicle: other, higher = larger tumour); 59 % of control and 75 % of control (endpoint: mean tumor weight, dose: 75.0 mg/kg/injection, schedule: Q01DX011 (ip), vehicle: other, higher = larger tumour); 76 % of control (endpoint: mean tumor weight, dose: 150.0 mg/kg/injection, schedule: Q01DX011 (ip), vehicle: other, higher = larger tumour); 115 % of control (endpoint: mean tumor weight, dose: 300.0 mg/kg/injection, schedule: Q01DX011 (ip), vehicle: other, higher = larger tumour).

As for `O=P(O)(NCCCl)NCCCl`, the T/C (endpoint: median survival time, dose: 12.5 mg/kg/injection, schedule: Q01DX001 (ip), vehicle: saline, higher = longer survival) was 114 % of control and 115 % of control; the T/C (endpoint: median survival time, dose: 25.0 mg/kg/injection, schedule: Q01DX001 (ip), vehicle: saline, higher = longer survival) is 113 % of control and 114 % of control; the T/C (endpoint: median survival time, dose: 100.0 mg/kg/injection, schedule: Q01DX001 (ip), vehicle: saline, higher = longer survival) is 200 % of control and 243 % of control.

As to `OCCc1ccccc1`, the T/C by setting is: (endpoint: mean tumor weight, dose: 62.5 mg/kg/injection, schedule: Q01DX011 (ip), vehicle: saline, higher = larger tumour) 95 % of control; (endpoint: mean tumor weight, dose: 125.0 mg/kg/injection, schedule: Q01DX011 (ip), vehicle: saline, higher = larger tumour) 107 % of control; (endpoint: mean tumor weight, dose: 250.0 mg/kg/injection, schedule: Q01DX011 (ip), vehicle: saline, higher = larger tumour) 75 % of control.

Turning to `Cc1cc(C)nc(NS(=O)(=O)c2ccc(N=Nc3nc4[nH]c(N)nc(=S)c4[nH]3)cc2)n1`, the T/C is, setting by setting: (endpoint: median survival time, dose: 0.78 mg/kg/injection, schedule: Q01DX009 (ip), vehicle: Klucel (hydroxypropylcellulose) (HPC), higher = longer survival) 96 % of control; (endpoint: median survival time, dose: 1.56 mg/kg/injection, schedule: Q01DX009 (ip), vehicle: Klucel (hydroxypropylcellulose) (HPC), higher = longer survival) 108 % of control.

Consider `CCCCC(=O)OCC(=O)[C@]1(O)Cc2c(O)c3c(c(O)c2[C@@H](OC2CC(NC(=O)C(F)(F)F)C(O)C(C)O2)C1)C(=O)c1c(OC)cccc1C3=O` (some centres undefined), for which the T/C runs as follows: (endpoint: median survival time, dose: 14.0 mg/kg/injection, schedule: Q01DX009 (ip), vehicle: distilled water + Tween-80, higher = longer survival) 114 % of control; (endpoint: median survival time, dose: 20.0 mg/kg/injection, schedule: Q01DX009 (ip), vehicle: distilled water + Tween-80, higher = longer survival) 123 % of control; (endpoint: median survival time, dose: 54.0 mg/kg/injection, schedule: Q01DX001 (ip), vehicle: distilled water + Tween-80, higher = longer survival) 113 % of control; (endpoint: median survival time, dose: 80.0 mg/kg/injection, schedule: Q01DX001 (ip), vehicle: distilled water + Tween-80, higher = longer survival) 155 % of control; (endpoint: median survival time, dose: 120.0 mg/kg/injection, schedule: Q01DX001 (ip), vehicle: distilled water + Tween-80, higher = longer survival) 158 % of control.

In the case of `O=NN(CCCl)C(=O)Nc1ccc(Cl)c(Cl)c1`, the T/C was 116 % of control (endpoint: median survival time, dose: 8.0 mg/kg/injection, schedule: Q01DX009 (ip), vehicle: saline with Tween-80, higher = longer survival) and 106 % of control (endpoint: median survival time, dose: 16.0 mg/kg/injection, schedule: Q01DX009 (ip), vehicle: saline with Tween-80, higher = longer survival).

Consider `CC(C)(C)c1ccc(CN2CCN(C(c3ccccc3)c3ccc(Cl)cc3)CC2)cc1` (centres undefined), for which the T/C runs as follows: (endpoint: median survival time, dose: 0.5 mg/kg/injection, schedule: Q01DX009 (ip), vehicle: saline with Tween-80, higher = longer survival) 112 % of control; (endpoint: median survival time, dose: 2.0 mg/kg/injection, schedule: Q01DX009 (ip), vehicle: saline with Tween-80, higher = longer survival) 112 % of control and 155 % of control and 233 % of control.

For the compound `COc1cc(OC)c(-c2cc(=O)c3c(OC)c(OC)c(OC)c(OC)c3o2)cc1OC`, the T/C was 73 % of control (endpoint: mean tumor weight, dose: 50.0 mg/kg/injection, schedule: Q01DX011 (ip), vehicle: saline, higher = larger tumour); 70 % of control (endpoint: mean tumor weight, dose: 100.0 mg/kg/injection, schedule: Q01DX011 (ip), vehicle: saline, higher = larger tumour); 97 % of control (endpoint: mean tumor weight, dose: 200.0 mg/kg/injection, schedule: Q01DX011 (ip), vehicle: saline, higher = larger tumour); 51 % of control (endpoint: mean tumor weight, dose: 400.0 mg/kg/injection, schedule: Q01DX011 (ip), vehicle: saline, higher = larger tumour).

For the compound `CCCCS(=O)CC(CO)NC(=O)/C=C/c1c(C)[nH]c(=O)[nH]c1=O` (centres undefined), the T/C is 101 % of control (endpoint: median survival time, dose: 0.63 mg/kg/injection, schedule: Q01DX009 (ip), vehicle: water, higher = longer survival); 113 % of control (endpoint: median survival time, dose: 2.5 mg/kg/injection, schedule: Q01DX009 (ip), vehicle: water, higher = longer survival); 89 % of control (endpoint: median survival time, dose: 5.0 mg/kg/injection, schedule: Q01DX009 (ip), vehicle: water, higher = longer survival).

As for `C(/C=C/C=C/N1CCCCC1)=[N+]1CCCCC1`, the T/C was 101 % of control (endpoint: median survival time, dose: 0.13 mg/kg/injection, schedule: Q01DX009 (ip), vehicle: saline, higher = longer survival); 110 % of control (endpoint: median survival time, dose: 0.25 mg/kg/injection, schedule: Q01DX009 (ip), vehicle: saline, higher = longer survival); 117 % of control (endpoint: median survival time, dose: 0.5 mg/kg/injection, schedule: Q01DX009 (ip), vehicle: saline, higher = longer survival); 110 % of control (endpoint: median survival time, dose: 1.0 mg/kg/injection, schedule: Q01DX009 (ip), vehicle: saline, higher = longer survival).

On to `Cc1ccc(Oc2ccc3cc[n+](C)cc3c2)cc1`, for which the T/C was 96 % of control (endpoint: median survival time, dose: 6.25 mg/kg/injection, schedule: Q01DX009 (ip), vehicle: saline, higher = longer survival) and 101 % of control (endpoint: median survival time, dose: 12.5 mg/kg/injection, schedule: Q01DX009 (ip), vehicle: saline, higher = longer survival).

As to `Cc1ccc(NC(=O)N(CCCl)N=O)cc1NC(=O)N(CCCl)N=O`, the T/C is 93 % of control (endpoint: median survival time, dose: 3.12 mg/kg/injection, schedule: Q01DX009 (ip), vehicle: other, higher = longer survival) and 87 % of control (endpoint: median survival time, dose: 6.25 mg/kg/injection, schedule: Q01DX009 (ip), vehicle: other, higher = longer survival).

Turning to `CSc1ncc(Br)c(Sc2nc(N)nc3nc[nH]c23)n1`, the T/C is 57 % of control (endpoint: mean tumor weight, dose: 5.0 mg/kg/injection, schedule: Q01DX011 (ip), vehicle: other, higher = larger tumour); 100 % of control (endpoint: mean tumor weight, dose: 10.0 mg/kg/injection, schedule: Q01DX011 (ip), vehicle: other, higher = larger tumour); 65 % of control (endpoint: mean tumor weight, dose: 20.0 mg/kg/injection, schedule: Q01DX011 (ip), vehicle: other, higher = larger tumour).

`Cc1ccc2nc(-c3ccc(N=Cc4ccccc4O)cc3)sc2c1`: the T/C (endpoint: median survival time, dose: 200.0 mg/kg/injection, schedule: Q01DX009 (ip), vehicle: olive oil, sesame oil, peanut oil, higher = longer survival) is 87 % of control.
